Test results from patent US20080207632A1, “PROTEIN KINASE INHIBITORS” (SUPERGEN, INC., priority 2006, published 2008).

Tests used:
Axl kinase = target: T1, Axl kinase (Homo sapiens, UniProt P30530); assay: Axl kinase inhibition assay (Kinase-Glo); format: biochemical; conditions: 3 μM ATP
T1 construct: purchased BPS Bioscience Inc, San Diego Calif
Protocol: One illustrative manner in which Axl kinase activity can be determined is by quantifying the phosphorylation of a known Axl substrate in an in vitro assay. In this assay kinase activity is determined by quantifying the amount of ATP remaining in solution following the kinase reaction by measuring the relative light units (RLU) produced by luciferase using a luminometer. Percent activity was determined for individual compounds by comparing luminometer readings of drug-treated reactions to controls containing no drug (RLUNO Inhib) and no […] enzyme (RLUNO Kinase) in the following equation: […]
In a 50 μl reaction, 200 ng/μl of Axl kinase (BPS Bioscience Inc, San Diego Calif.) was incubated at 30° C. for two hours with shaking (360 rpm) with 10 μg/ml Poly (Glu:Tyr) substrate (BPS Bioscience Inc, Calif.), 3 μM ATP. (Invitrogen, Carlsbad, Calif.) and kinase reaction buffer (40 mM MOPS, 75 mM MgCl2 and 0.1 mM EDTA). The value of 3 μM ATP was determined to be the Km (concentration at which the enzyme is working at 50% maximum velocity) for the amount of enzyme used in this assay. […] Kinase activity is determined by quantifying the amount of ATP remaining in solution following the kinase reaction by measuring the relative light units (RLU) produced by luciferase using a luminometer (Thermo Electron Corporation, Vantaa, Finland).

[1] = system: Histone H3 phospho-Serine 10 in MiaPaCa-2 cells; assay: Western Blot for Histone H3 phospho-Serine 10; format: cell-based; conditions: synchronized MiaPaCa-2 cells, 30 µM compound, 24 hours
Source text: A hallmark of Aurora-2 kinase inhibition, which distinguishes it from Aurora-1 kinase inhibition, is an increase in Histone H3 phosphorylation on Serine 10, an activity which is controlled by Aurora-1 kinase. This is in contrast to the decrease in Histone H3 phosphorylation that has been observed with Aurora-1 kinase inhibition. Compound 2-3 was examined for its effect on Histone H3 phosphorylation, in order to further verify its specificity for Aurora-2 kinsase. Briefly, MiaPaCa-2 cells were grown in 25 cm^2 flasks to approximately 40% confluency, and then synchronized with Aphidicolin and Hoechst 33342 as described above. Cell were then released and treated with 30 µM compound 2-3 in culture medium for 24 hours. Cells were then lysed, and total protein was quantified. 50 μg of total protein was electrophoresed and transferred to nitrocellulose, at which time Western Blot analysis for Histone H3 phospho-Serine 10 was performed. […] This signal quickly disappeared, as the cells began to undergo apoptosis, as discussed earlier.

[2] = system: Aurora-2 kinase (Aurora-A) over Aurora-1 kinase (Aurora-B); assay: SelectScreen kinase assay, specificity within the Aurora kinase family; format: biochemical; conditions: SelectScreen kinase assay system
Protocol: In order to determine the specificity of compound 2-3 within the Aurora kinase family, both Aurora-2 kinase (Aurora-A) and Aurora-1 kinase (Aurora-B) were examined for sensitivity to this molecule. These studies were performed using the SelectScreen kinase assay system (Invitrogen Corp.; Madison, Wis.) and gave rise to the results presented in FIG. 2.

T1 sequence (P30530 26-894): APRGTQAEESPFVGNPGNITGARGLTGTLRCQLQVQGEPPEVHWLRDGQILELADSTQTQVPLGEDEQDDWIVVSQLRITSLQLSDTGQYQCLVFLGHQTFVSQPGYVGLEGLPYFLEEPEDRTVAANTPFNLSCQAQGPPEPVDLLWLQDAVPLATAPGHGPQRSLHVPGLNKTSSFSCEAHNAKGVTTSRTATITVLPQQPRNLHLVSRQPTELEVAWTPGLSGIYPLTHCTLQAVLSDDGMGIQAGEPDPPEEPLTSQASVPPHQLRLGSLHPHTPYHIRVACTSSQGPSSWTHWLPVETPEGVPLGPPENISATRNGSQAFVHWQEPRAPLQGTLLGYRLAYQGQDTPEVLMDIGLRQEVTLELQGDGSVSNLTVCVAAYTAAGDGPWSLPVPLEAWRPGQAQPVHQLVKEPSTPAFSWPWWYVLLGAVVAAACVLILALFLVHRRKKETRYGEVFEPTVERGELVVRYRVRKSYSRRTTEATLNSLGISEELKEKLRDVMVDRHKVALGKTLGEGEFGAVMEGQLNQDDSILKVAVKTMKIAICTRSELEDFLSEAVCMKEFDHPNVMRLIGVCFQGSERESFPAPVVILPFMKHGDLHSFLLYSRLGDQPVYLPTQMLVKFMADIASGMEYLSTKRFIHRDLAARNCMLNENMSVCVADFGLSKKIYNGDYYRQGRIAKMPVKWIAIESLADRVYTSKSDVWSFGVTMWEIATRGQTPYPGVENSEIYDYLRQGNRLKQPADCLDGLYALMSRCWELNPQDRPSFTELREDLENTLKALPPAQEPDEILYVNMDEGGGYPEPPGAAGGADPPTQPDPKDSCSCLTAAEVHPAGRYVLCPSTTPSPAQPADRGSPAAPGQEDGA

With CC(=O)NS(=O)(=O)c1ccc(NC(=S)N2CCN(c3ncnc4[nH]c5cc(C(F)(F)F)c(Cl)cc5c34)CC2)cc1 [Compound 1-1, 4-(6-Chloro-7-trifluoromethyl-9H-pyrimido[4,5-b]indol-4-yl)-piperazine-1-carbothioic acid (4-acetylsulfamoyl-phenyl)-amide] the IC50 (Axl kinase) was 9.8 µM.

In the case of COc1cc2[nH]c3ncnc(N4CCN(C(=S)Nc5ccc(S(=O)(=O)Nc6ccc(F)cc6)cc5)CC4)c3c2cc1OC [Compound 2-3, 4-(6,7-dimethoxy-9H-pyrimido[4,5-b]indol-4-yl)-N-(4-(N-(4-fluorophenyl)sulfamoyl)phenyl)piperazine-1-carbothioamide], the “Histone H3 Serine 10 phosphorylation” value [1] is reported as “pronounced phosphorylation signal” and the “selectivity for Aurora-2 kinase over Aurora-1 kinase” value [2] is reported as “over 100 fold”.
